Reference: publication PMC6202471 (CPT: Pharmacometrics & Systems Pharmacology, 2018)
Where two headings read alike, the source gives them in different places.

Key:
[1] = cited from earlier work; for AUC, NCA results: trapezoidal rule with extrapolation to infinity
[2] = cited from earlier work; for f u,GW, unbound drug fraction in the gut wall: fixed to 1
[3] = Semimechanistic population pharmacokinetic model; details: for CLINT,H, intrinsic hepatic clearance, SIR median: SIR 20,000 samples, 2,000 resamples; for CLINT,H, intrinsic hepatic clearance, SIR median / CLINT,GW, intrinsic gut wall clearance, SIR median / Q PER1, central to first peripheral compartment clearance, SIR median / V C, volume of central compartment, SIR median / V PER1, volume of first peripheral compartment, SIR median / V C, volume of central compartment, NONMEM mean θ estimate / V PER1, volume of first peripheral compartment, NONMEM mean θ estimate: norketamine values apparent; for CLINT,GW, intrinsic gut wall clearance, NONMEM mean θ estimate / CLINT,H, intrinsic hepatic clearance, NONMEM mean θ estimate: norketamine values apparent (F met set to 1)
[4] = cited from earlier work; for K a,TIC, absorption rate constant, fixed to a published value: FIXED in the model
CYP2B6 [5] = molecular target: T1, CYP2B6 (Homo sapiens, UniProt P20813); details: after administration of ticlopidine
T1 sequence (P20813 1-491): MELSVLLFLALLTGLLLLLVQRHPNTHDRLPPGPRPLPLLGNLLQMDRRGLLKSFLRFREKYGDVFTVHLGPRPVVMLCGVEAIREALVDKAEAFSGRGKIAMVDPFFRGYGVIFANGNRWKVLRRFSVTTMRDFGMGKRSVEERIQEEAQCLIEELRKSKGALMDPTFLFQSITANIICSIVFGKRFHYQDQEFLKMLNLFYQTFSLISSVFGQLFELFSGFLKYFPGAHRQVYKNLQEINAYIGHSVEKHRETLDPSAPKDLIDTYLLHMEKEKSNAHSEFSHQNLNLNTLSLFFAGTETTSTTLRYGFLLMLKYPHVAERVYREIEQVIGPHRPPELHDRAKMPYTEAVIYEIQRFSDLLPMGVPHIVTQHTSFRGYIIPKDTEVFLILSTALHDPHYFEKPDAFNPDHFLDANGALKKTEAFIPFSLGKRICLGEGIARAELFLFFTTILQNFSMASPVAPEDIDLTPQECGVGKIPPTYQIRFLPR

CYP2B6 [6] = molecular target: T1, CYP2B6; details: in vitro study; cited from earlier work
[7] = S-ketamine p.o. ticlopidine-phase

Structure (SMILES) | C max, NCA results ([1]; S-ketamine i.v. placebo-phase) | C max, NCA results ([1]; S-ketamine p.o. placebo-phase) | AUC, NCA results ([1]; S-ketamine p.o. placebo-phase) | C max, NCA results [1, 7] | AUC, NCA results [1, 7] | f u,GW, unbound drug fraction in the gut wall [2] | CLINT,H, intrinsic hepatic clearance, SIR median [3] | CLINT,GW, intrinsic gut wall clearance, SIR median ([3]; SIR) | Q PER1, central to first peripheral compartment clearance, SIR median ([3]; SIR) | V C, volume of central compartment, SIR median ([3]; SIR) | V PER1, volume of first peripheral compartment, SIR median ([3]; SIR) | Interindividual variability on CLINT,H, NONMEM estimate ([3]; exponential IIV model) | Interindividual variability on CLINT,H, SIR median ([3]; exponential IIV model, SIR) | V C, volume of central compartment, NONMEM mean θ estimate ([3]; final model) | V PER1, volume of first peripheral compartment, NONMEM mean θ estimate ([3]; final model) | CLINT,GW, intrinsic gut wall clearance, NONMEM mean θ estimate ([3]; final model) | CLINT,H, intrinsic hepatic clearance, NONMEM mean θ estimate ([3]; final model) | also measured
CCC(C)n1ncn(-c2ccc(N3CCN(c4ccc(OCC5COC(Cn6cncn6)(c6ccc(Cl)cc6Cl)O5)cc4)CC3)cc2)c1=O (stereo not drawn) [Itraconazole] |  |  |  |  |  |  |  |  |  |  |  |  |  |  |  |  |  | Effect on plasma concentrations of orally administered S-ketamine ([1]; CYP3A inhibitor pretreatment, healthy volunteers): no significant effect
NC1(c2ccccc2Cl)CCCCC1=O (stereo not drawn) [Norketamine, norketamine] | 14 ng/mL | 61 ng/mL | 292 ng·h/mL | 46 ng/mL | 310 ng·h/mL | 1 | 73.4 L/h | 46.5 L/h | 20.1 L/h | 88 L | 88.8 L | 0.10 | 0.10 | 88.4 L | 88.9 L | 44.4 L/h | 73.5 L/h | f u,NK, unbound drug fraction in the blood ([2]; norketamine): 0.50
CN[C@]1(c2ccccc2Cl)CCCCC1=O [S‐ketamine] | 32 ng/mL | 9.9 ng/mL | 21 ng·h/mL | 17 ng/mL | 54 ng·h/mL | 1 | 304 L/h | 1.22 L/h | 288 L/h | 14.4 L | 102 L | 0.25 | 0.26 | 14.4 L | 102 L | 1.19 L/h | 301 L/h | f u,SK, unbound drug fraction in the blood ([2]; S-ketamine): 0.70; Share of S-ketamine metabolized to norketamine in vivo [4]: ~ 80%; F met, true value for S-ketamine to norketamine metabolism ([4]; humans, set to 1 in the model): b Should be considered as apparent rather than absolute values, as F met was set to 1 but true value of F met = 0.80 in humans for S‐ketamine to norketamine metabolism.; K a, absorption rate constant, SIR median ([3]; SIR): 1.78 h⁻¹; Q PER2, central to second peripheral compartment clearance, SIR median ([3]; SIR): 22.3 L/h; V PER2, volume of second peripheral compartment, SIR median ([3]; SIR): 180 L; Interindividual variability on CLINT,GW, NONMEM estimate ([3]; exponential IIV model): 2.1; Interindividual variability on K a, NONMEM estimate ([3]; exponential IIV model): 0.42; Interindividual variability on V PER1, NONMEM estimate ([3]; exponential IIV model): 0.045; Interindividual variability on CLINT,GW, SIR median ([3]; exponential IIV model, SIR): 2.0; Interindividual variability on K a, SIR median ([3]; exponential IIV model, SIR): 0.44; Interindividual variability on V PER1, SIR median ([3]; exponential IIV model, SIR): 0.046; K a, absorption rate constant, NONMEM mean θ estimate ([3]; final model): 1.76 h⁻¹; V PER2, volume of second peripheral compartment, NONMEM mean θ estimate ([3]; final model): 180 L; Total hepatic clearance of S-ketamine ([3]; placebo phase, well-stirred model): 71 L/h; Intrinsic hepatic clearance of S-ketamine (CYP2B6 [5]): 113 L/h; Total hepatic clearance of S-ketamine (CYP2B6 [5]; well-stirred model): 60 L/h
Clc1ccccc1CN1CCc2sccc2C1 [Ticlopidine, ticlopidine] |  |  |  |  |  | 1 |  |  |  | 50.8 L | 208.7 L |  |  | 50.3 L | 191 L |  |  | K a,TIC, absorption rate constant, fixed to a published value [4]: 3.3 (FIXED) /h; K a,TIC, absorption rate constant, fixed to a published value ([4]; listed as ticlopidine): 3.3 h⁻¹; Ticlopidine half-life after multiple dosing [4]: increased
CNC1(c2ccccc2Cl)CCCCC1=O (stereo not drawn) [ketamine] |  |  |  |  |  |  |  |  |  |  |  |  |  |  |  |  |  | Bioavailability after oral administration ([4]; extensive first-pass metabolism): ~ 17%; Fraction of ketamine metabolized by hepatic CYP2B6 (CYP2B6 [6]): around 60%
